Data as given in US8361758B2, “Microorganism of Corynebacterium genus having resistance to kanamycin and enhanced L-lysine productivity and method of producing L-lysine using the same” (priority 2005, dated 2013).

What was measured:
[1] = system: Corynebacterium glutamicum KFCC10881; assay: Resistance to kanamycin: growth on minimal agar plate medium containing kanamycin; assay type: cell-based; details: Kanamycin 5 mg/l, cultured four days, parent strain
Method: (§1) Next, an experiment of resistance to kanamycin with respect to the selected mutant resistant to kanamycin, Corynebacterium glutamicum KFCC10881-CJP5103, and the parent bacteria was performed. First, the two microorganisms were cultured in a Luria Bertani (LB) liquid medium for 16 hours, and then the cells were washed using sterile normal saline two times. Then, the washed cells were properly diluted and the resulting product was cultured in a minimal agar plate medium containing kanamycin having a concentration of 5 mg/l for four days to measure productivity of each microorganism. A composition of the minimal agar plate medium is the same as follows: 10 g of glucose, 2 g of (NH4)2SO4, 2 g of urea, 1.0 g of KH2PO4, 3.0 g of K2HPO4, 0.5 g of MgSO4.7H2O, 10 mg of FeSO4.7H2O, 10 mg of MnSO4.7H2O, 100 μg of biotin, 100 lag of thiamine. HCl, 100 μg of CaCl2.2H2O, 80 μg of Na2B4O7.10H2O, 40 μg of (NH4)6MoO27.4H2O, 10 μg of ZnSO4.7 H2O, 300 μg of CuSO4.7 H2O, 10 μg of MnCl2.4H2O, 1 mg of FeCl3.6H2O, 20 g of agar, 0.1 g of L-leucine if necessary, 0.1 g of L-threonine if necessary, 0.1 g of L-methionine if necessary, per 1 L of distilled water (pH 7.0).
(§2) The results of measuring productivity of the mutant and the parent bacteria in a kanamycin-containing medium are shown in Table. 1.

[2] = system: Corynebacterium glutamicum KFCC10881-CJP5103; assay: as above; assay type: cell-based; details: Kanamycin 5 mg/l, cultured four days, kanamycin-resistant mutant
Method: as §1, §2

## NC[C@H]1O[C@H](O[C@H]2[C@H](O)[C@@H](O[C@H]3O[C@H](CO)[C@@H](O)[C@H](N)[C@H]3O)[C@H](N)C[C@@H]2N)[C@H](O)[C@@H](O)[C@@H]1O [Kanamycin, kanamycin]
[1]
  Growth of KFCC-10881 in kanamycin-containing medium: −
[2]
  Growth of KFCC-10881-CJP5103 in kanamycin-containing medium: +++
